Experimental data from patent publication US20110086759A1, “CHEMICAL COMPOUNDS” (SYNGENTA CROP PROTECTION, INC., priority 2007, published 2011).

Legend:
Format in all cases: in vivo
[1] = system: Alopecurus myosuroides (ALOMY); test: Pre-emergence biological efficacy, glasshouse pot test; conditions: 312 h, pre-emergence, 1,000 g/ha, evaluated after 13 days (100=total damage; 0=no damage), read-out: Percentage damage ALOMY
In short: (§1)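 Visual phytotoxicity (0 no damage, 100 total damage) assessed 13 d after treatment. Soil-sown pots sprayed one day post-sowing; dose 1000 or 250 g/ha; formulation in acetone/water 50:50, 0.5% Tween 20.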

[2] = system: Amaranthus retoflexus (AMARE); test: as above; conditions: Amaranthus retroflexus, 312 h; pre-emergence, 1,000 g/ha, evaluated after 13 days (100=total damage; 0=no damage); read-out: Percentage damage AMARE
In short: as §1

[3] = system: Echinochloa crus-galli (ECHCG); test: as above; conditions: 312 h, pre-emergence, 1,000 g/ha, evaluated after 13 days (100=total damage; 0=no damage), read-out: Percentage damage ECHCG
In short: as §1

[4] = system: Ipomea hederaceae (IPOHE); test: as above; conditions: Ipomoea hederacea, 312 h; pre-emergence, 1,000 g/ha, evaluated after 13 days (100=total damage; 0=no damage); read-out: Percentage damage IPOHE
In short: as §1

[5] = system: Setaria faberi (SETFA); test: as above; conditions: 312 h, pre-emergence, 1,000 g/ha, evaluated after 13 days (100=total damage; 0=no damage), read-out: Percentage damage SETFA
In short: as §1

[6] = system: Solanum nigrum (SOLNI); test: as above; conditions: 312 h, pre-emergence, 1,000 g/ha, evaluated after 13 days (100=total damage; 0=no damage), read-out: Percentage damage SOLNI
In short: as §1

[7] = system: Alopecurus myosuroides (ALOMY); test: Post-emergence biological efficacy, glasshouse pot test; conditions: 312 h, post-emergence, 1,000 g/ha, evaluated after 13 days (100=total damage; 0=no damage), read-out: Percentage damage caused to weed species, ALOMY
In short: (§2)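 Pot-grown weeds were sprayed 8 days after sowing with test compound in acetone/water (50:50) with 0.5% Tween 20 at 1000 or 250 g/ha. Glasshouse at 24/16° C day/night, 14 h light, 65% humidity. Damage scored 0-100 (100 = total damage) after 13 days.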

[8] = system: Amaranthus retoflexus (AMARE); test: as above; conditions: Amaranthus retroflexus, 312 h; post-emergence, 1,000 g/ha, evaluated after 13 days (100=total damage; 0=no damage); read-out: Percentage damage caused to weed species, AMARE
In short: as §2

[9] = system: Echinochloa crus-galli (ECHCG); test: as above; conditions: 312 h, post-emergence, 1,000 g/ha, evaluated after 13 days (100=total damage; 0=no damage), read-out: Percentage damage caused to weed species, ECHCG
In short: as §2

[10] = system: Ipomea hederaceae (IPOHE); test: as above; conditions: Ipomoea hederacea, 312 h; post-emergence, 1,000 g/ha, evaluated after 13 days (100=total damage; 0=no damage); read-out: Percentage damage caused to weed species, IPOHE
In short: as §2

[11] = system: Setaria faberi (SETFA); test: as above; conditions: 312 h, post-emergence, 1,000 g/ha, evaluated after 13 days (100=total damage; 0=no damage), read-out: Percentage damage caused to weed species, SETFA
In short: as §2

[12] = system: Solanum nigrum (SOLNI); test: as above; conditions: 312 h, post-emergence, 1,000 g/ha, evaluated after 13 days (100=total damage; 0=no damage), read-out: Percentage damage caused to weed species, SOLNI
In short: as §2

Compound | pest or weed control at 1000 g/ha [1] | pest or weed control at 1000 g/ha [2] | pest or weed control at 1000 g/ha [3] | pest or weed control at 1000 g/ha [4] | pest or weed control at 1000 g/ha [5] | pest or weed control at 1000 g/ha [6] | pest or weed control at 1000 g/ha [7] | pest or weed control at 1000 g/ha [8] | pest or weed control at 1000 g/ha [9] | pest or weed control at 1000 g/ha [10] | pest or weed control at 1000 g/ha [11] | pest or weed control at 1000 g/ha [12]
COC(=O)c1nc(C2CC2)nc(NCc2ccc(S(N)(=O)=O)cc2)c1Cl [Compound 4-93, 4-(4-Aminosulphonyl-phenyl)methylamino-5-chloro-2-cyclopropyl-6-methoxycarbonyl-pyrimidine] | 0% | 30% | 0% | 40% | 0% | 0% | 0% | 30% | 0% | 70% | 0% | 50%
COC(=O)c1ccc(CNc2nc(C3CC3)nc(C(=O)OC)c2Cl)cc1 [Compound 4-94, 5-Chloro-2-cyclopropyl-6-methoxycarbonyl-4-(4-methoxy-carbonylphenyl-methylamino)-pyrimidine] | 10% | 70% | 10% | 50% | 10% | 80% | 10% | 100% | 10% | 100% | 30% | 90%
COC(=O)c1nc(C2CC2)nc(NCc2cccc(-c3ccccc3)c2)c1Cl [Compound 4-95, 5-Chloro-2-cyclopropyl-6-methoxycarbonyl-4-(3-phenylphenyl-methylamino)-pyrimidine] | 10% | 60% | 10% | 30% | 10% | 30% | 20% | 90% | 60% | 100% | 60% | 80%
COC(=O)c1nc(C2CC2)nc(NCc2cccc(F)c2F)c1Cl [Compound 4-96, 5-Chloro-2-cyclopropyl-4-(2,3-difluorophenyl-methylamino)-6-methoxycarbonyl-pyrimidine] | 10% | 60% | 20% | 50% | 30% | 60% | 20% | 100% | 80% | 100% | 90% | 100%
COC(=O)c1nc(C2CC2)nc(NCc2ccc(F)cc2F)c1Cl [Compound 4-97, 5-Chloro-2-cyclopropyl-4-(2,4-difluorophenyl-methylamino)-6-methoxycarbonyl-pyrimidine] | 20% | 40% | 40% | 60% | 40% | 50% | 20% | 100% | 80% | 100% | 90% | 100%
COC(=O)c1nc(C2CC2)nc(NCc2cc(F)ccc2F)c1Cl [Compound 4-98, 5-Chloro-2-cyclopropyl-4-(2,5-difluorophenyl-methyl-amino)-6-methoxycarbonyl-pyrimidine] | 30% | 50% | 20% | 60% | 30% | 60% | 40% | 100% | 80% | 100% | 100% | 100%
COC(=O)c1nc(C2CC2)nc(NCc2c(F)cccc2F)c1Cl [Compound 4-99, 5-Chloro-2-cyclopropyl-4-(2,6-difluorophenylmeth-ylamino)-6-methoxycarbonyl-pyrimidine] | 30% | 60% | 50% | 60% | 50% | 60% | 50% | 100% | 100% | 100% | 100% | 100%
COC(=O)c1nc(C2CC2)nc(NCc2cc(F)cc(F)c2)c1Cl [Compound 4-100, 5-Chloro-2-cyclopropyl-4-(3,5-difluorophenylmeth-ylamino)-6-methoxy-carbonylpyrimidine] | 20% | 70% | 40% | 50% | 20% | 60% | 30% | 100% | 70% | 100% | 100% | 100%
COC(=O)c1nc(C2CC2)nc(NCc2ccc(Cl)cc2F)c1Cl [Compound 4-101, 5-Chloro-4-(4-chloro-2-fluoro-phenylmethyl-amino)-2-cyclopropyl-6-methoxycarbonyl-pyrimidine] | 10% | 70% | 30% | 70% | 10% | 30% | 30% | 100% | 50% | 100% | 90% | 100%
COC(=O)c1nc(C2CC2)nc(NCc2ccc(Cl)cc2Cl)c1Cl [Compound 4-103, 5-Chloro-2-cyclopropyl-4-(2,4-dichlorophenyl-methylamino)-6-methoxycarbonyl-pyrimidine] | 10% | 40% | 0% | 30% | 0% | 10% | 20% | 100% | 60% | 90% | 70% | 80%
COC(=O)c1nc(C2CC2)nc(NCc2c(Cl)cccc2Cl)c1Cl [Compound 4-104, 5-Chloro-2-cyclopropyl-4-(2,6-dichlorophenyl-methylamino)-6-methoxycarbonyl-pyrimidine] | 10% | 40% | 20% | 20% | 0% | 30% | 20% | 100% | 90% | 100% | 90% | 90%
